Our source for the ring closure, conversion by HPLC and ring closure, isolated yield (% isolated yield) values is paper PMC8048981, “Cys–Cys and Cys–Lys Stapling of Unprotected Peptides Enabled by Hypervalent Iodine Reagents” (Angewandte Chemie (International Ed. in English), 2021).

The conditions of data set [1]: the molecule shown is the open-chain precursor, scale: % relative absorbance at 210 nm vs linear peptide standard.
Data set [2] can be described thus: Two-component Cys-Lys stapling with EBX-PFP ester reagents 9a/9b (1.1 equiv), DIPEA (2.5 equiv), preparative RP-HPLC. As to conditions: the molecule shown is the open-chain precursor, DMF, 1.0 mM, 37.0 °C.
Data set [3] is described as follows: Two-component Cys-Lys stapling: Cys S-alkynylation by EBX-pentafluorophenyl ester reagents 9a-9d (1.1 equiv), then intramolecular Lys aminolysis of the PFP ester; DIPEA (2.5 equiv). As to conditions: the molecule shown is the open-chain precursor, DMF, 1.0 mM, 37.0 °C, scale: % relative absorbance at 210 nm vs linear peptide standard.
Data set [4] can be described thus: Two-component Cys-Cys stapling with bis-hypervalent iodine reagents 8c-8e (3.0 equiv), DIPEA (2.5 equiv), overnight, preparative RP-HPLC. As to conditions: the molecule shown is the open-chain precursor, DMF, 2.0 mM, 37.0 °C.
Setting [5] is: 22-membered ring, DMF, 1.0 mM, 37.0 °C, 4.0 h.
Where [6] appears, read: 24-membered ring, DMF, 1.0 mM, 37.0 °C, 4.0 h.

Read-outs that look alike come from different tables or passages of the source.

With `CSCC[C@H](NC(=O)[C@H](CC(N)=O)NC(=O)[C@H](CCCCN)NC(=O)[C@H](Cc1ccc(O)cc1)NC(=O)[C@H](CS)NC(=O)[C@H](CCC(=O)O)NC(=O)[C@H](Cc1c[nH]cn1)NC(=O)[C@H](Cc1c[nH]c2ccccc12)NC(=O)[C@H](CSC#C[Si](C#CI1OC(C(F)(F)F)(C(F)(F)F)c2ccccc21)(C(C)C)C(C)C)NC(=O)[C@H](CCCNC(=N)N)NC(=O)[C@H](CCC(=O)O)NC(=O)[C@@H](N)CO)C(N)=O`, in data set [1] (setting [5]), the ring closure, conversion by HPLC came out at 79.
`CSCC[C@H](NC(=O)[C@H](CC(N)=O)NC(=O)[C@H](CCCCN)NC(=O)[C@H](Cc1ccc(O)cc1)NC(=O)[C@H](CS)NC(=O)[C@H](CCC(=O)O)NC(=O)[C@H](Cc1c[nH]cn1)NC(=O)[C@H](Cc1c[nH]c2ccccc12)NC(=O)[C@H](CSC#C[Si](O[Si](C#CI1OC(C(F)(F)F)(C(F)(F)F)c2ccccc21)(C(C)C)C(C)C)(C(C)C)C(C)C)NC(=O)[C@H](CCCNC(=N)N)NC(=O)[C@H](CCC(=O)O)NC(=O)[C@@H](N)CO)C(N)=O` displayed a ring closure, conversion by HPLC in data set [1] (setting [6]) of 15.
Turning to “5(6)-FAM-QSQQTFC(S-C≡C-C6H4-4-CO-OPfp)NLWRLLKQN-NH2”, the ring closure, isolated yield (% isolated yield) in data set [2] (36-membered ring) is 76.
`C[C@H](NC(=O)[C@H](CC(=O)O)NC(=O)[C@H](Cc1c[nH]cn1)NC(=O)[C@H](CCCCN)NC(=O)[C@H](Cc1ccc(O)cc1)NC(=O)[C@H](Cc1ccccc1)NC(=O)[C@H](CCC(N)=O)NC(=O)[C@H](CO)NC(=O)[C@@H](N)CCCNC(=N)N)C(=O)NCC(=O)N[C@@H](CSC#Cc1cccc(C(=O)Oc2c(F)c(F)c(F)c(F)c2F)c1)C(=O)NCC(N)=O` [H-RSQFYKHDAGC(S-C≡C-C6H4-3-CO-OPfp)G-NH2]: the ring closure, conversion by HPLC in data set [3] (29-membered ring, 0.5 h) is 22.
As for `C[C@H](NC(=O)[C@H](CC(=O)O)NC(=O)[C@H](Cc1c[nH]cn1)NC(=O)[C@H](CCCCN)NC(=O)[C@H](Cc1ccc(O)cc1)NC(=O)[C@H](Cc1ccccc1)NC(=O)[C@H](CCC(N)=O)NC(=O)[C@H](CO)NC(=O)[C@@H](N)CCCNC(=N)N)C(=O)NCC(=O)N[C@@H](CSC#Cc1ccc(C(=O)Oc2c(F)c(F)c(F)c(F)c2F)cc1)C(=O)NCC(N)=O` [H-RSQFYKHDAGC(S-C≡C-C6H4-4-CO-OPfp)G-NH2], the ring closure, conversion by HPLC in data set [3] (30-membered ring, 0.5 h) was found to be 54; in data set [3] (41-membered ring, 0.5 h) it was 18.
Take `CSCC[C@H](NC(=O)[C@H](CC(N)=O)NC(=O)[C@H](Cc1ccc(O)cc1)NC(=O)[C@H](CCCCN)NC(=O)[C@H](CCC(=O)O)NC(=O)[C@H](Cc1c[nH]cn1)NC(=O)[C@H](Cc1c[nH]c2ccccc12)NC(=O)[C@H](CSC#Cc1cccc(C(=O)Oc2c(F)c(F)c(F)c(F)c2F)c1)NC(=O)[C@H](CCCNC(=N)N)NC(=O)[C@H](CCC(=O)O)NC(=O)[C@@H](N)CO)C(N)=O` [H-SERC(S-C≡C-C6H4-3-CO-OPfp)WHEKYNM-NH2]: in data set [3] (26-membered ring, 0.5 h), the ring closure, conversion by HPLC stood at 20.
Take `CSCC[C@H](NC(=O)[C@H](CC(N)=O)NC(=O)[C@H](Cc1ccc(O)cc1)NC(=O)[C@H](CCCCN)NC(=O)[C@H](CCC(=O)O)NC(=O)[C@H](Cc1c[nH]cn1)NC(=O)[C@H](Cc1c[nH]c2ccccc12)NC(=O)[C@H](CSC#Cc1ccc(C(=O)Oc2c(F)c(F)c(F)c(F)c2F)cc1)NC(=O)[C@H](CCCNC(=N)N)NC(=O)[C@H](CCC(=O)O)NC(=O)[C@@H](N)CO)C(N)=O` [H-SERC(S-C≡C-C6H4-4-CO-OPfp)WHEKYNM-NH2]: the ring closure, conversion by HPLC in data set [3] (27-membered ring, 0.5 h) is 63.
For the compound “Ac-ENPEC(S-C≡C-C6H4-2-CO-OPfp)ILDKHVQRVM-NH2”, the ring closure, conversion by HPLC in data set [3] (25-membered ring, 0.5 h) worked out at 101.
As to “Ac-ENPEC(S-C≡C-C6H4-3-CO-OPfp)ILDKHVQRVM-NH2”, the ring closure, conversion by HPLC in data set [3] (26-membered ring, 0.5 h) stood at 34. In data set [2] (26-membered ring), the ring closure, isolated yield (% isolated yield) amounted to 7.
With “Ac-ENPEC(S-C≡C-C6H4-3-C≡C-I[bis-CF3 benziodoxole])ILDCHVQRVM-NH2”, in data set [1] (setting [6]), the ring closure, conversion by HPLC stood at 13.
Consider “Ac-ENPEC(S-C≡C-C6H4-4-CO-OPfp)ILDKHVQRVM-NH2”, for which the ring closure, conversion by HPLC in data set [3] (27-membered ring, 0.5 h) was determined as 62. Moreover, the ring closure, isolated yield (% isolated yield) in data set [2] (27-membered ring) was determined as 52.
Regarding “Ac-ENPEC(S-C≡C-C6H4-4-C≡C-I[bis-CF3 benziodoxole])ILDCHVQRVM-NH2”, in data set [1] (25-membered ring), the ring closure, conversion by HPLC is 27.
In the case of “Ac-ENPEC(S-C≡C-Si(cHex)2-C≡C-I[bis-CF3 benziodoxole])ILDCHVQRVM-NH2”, in data set [1] (setting [5]), the ring closure, conversion by HPLC is 89.
Turning to “Ac-ENPEC(S-C≡C-Si(iPr)2-C≡C-I[bis-CF3 benziodoxole])ILDCHVQRVM-NH2”, in data set [4] (22-membered ring), the ring closure, isolated yield (% isolated yield) came out at 46. The compound further returned a ring closure, conversion by HPLC in data set [1] (setting [5]) of 98.
In the case of “Ac-ENPEC(S-C≡C-Si(iPr)2-O-Si(iPr)2-C≡C-I[bis-CF3 benziodoxole])ILDCHVQRVM-NH2”, the ring closure, isolated yield (% isolated yield) in data set [4] (24-membered ring) was found to be 29. Moreover, the ring closure, conversion by HPLC in data set [1] (setting [6]) came to 51.
Consider “Ac-QSQQTFC(S-C≡C-C6H4-2-CO-OPfp)NLWRLLKQN-NH2”, for which the ring closure, conversion by HPLC in data set [3] (34-membered ring, 0.5 h) was 123.
For “Ac-QSQQTFC(S-C≡C-C6H4-3-CO-OPfp)NLWRLLKQN-NH2”, the ring closure, conversion by HPLC in data set [3] (35-membered ring, 0.5 h) stood at 110. Moreover, in data set [2] (35-membered ring), the ring closure, isolated yield (% isolated yield) is 55.
On to “Ac-QSQQTFC(S-C≡C-C6H4-3-C≡C-I[bis-CF3 benziodoxole])NLWRLLCQN-NH2”, for which the ring closure, conversion by HPLC in data set [1] (33-membered ring, DMF, 1.0 mM, 37.0 °C, 4.0 h) was determined as 13.
Turning to “Ac-QSQQTFC(S-C≡C-C6H4-4-CO-OPfp)NLWRLLKQN-NH2”, the ring closure, conversion by HPLC in data set [3] (36-membered ring, 0.5 h) amounted to 117. For the same compound, in data set [2] (36-membered ring), the ring closure, isolated yield (% isolated yield) was 87.
For the compound “Ac-QSQQTFC(S-C≡C-C6H4-4-C≡C-I[bis-CF3 benziodoxole])NLWRLLCQN-NH2”, the ring closure, conversion by HPLC in data set [1] (34-membered ring, DMF, 1.0 mM, 37.0 °C, 4.0 h) worked out at 46.
“Ac-QSQQTFC(S-C≡C-Si(cHex)2-C≡C-I[bis-CF3 benziodoxole])NLWRLLCQN-NH2”: the ring closure, isolated yield (% isolated yield) in data set [4] (31-membered ring) came out at 22.
Regarding “Ac-QSQQTFC(S-C≡C-Si(iPr)2-C≡C-I[bis-CF3 benziodoxole])NLWRLLCQN-NH2”, the ring closure, isolated yield (% isolated yield) in data set [4] (31-membered ring) was 13. The compound also came in with a ring closure, conversion by HPLC in data set [1] (31-membered ring, DMF, 1.0 mM, 37.0 °C, 4.0 h) of 30.
Take “Ac-YGGEAAREAC(S-C≡C-C6H3-3,5-(CO-OPfp)2)AREKAARE-NH2”: the ring closure, conversion by HPLC in data set [3] (26-membered ring, 0.25 h) was 70.
Take “Ac-YGGEAAREAC(S-C≡C-C6H4-2-CO-OPfp)AREKAARE-NH2”: the ring closure, conversion by HPLC in data set [3] (25-membered ring, 0.5 h) was found to be 118.
Regarding “Ac-YGGEAAREAC(S-C≡C-C6H4-3-CO-OPfp)AREKAARE-NH2”, in data set [3] (26-membered ring, 0.5 h), the ring closure, conversion by HPLC turned out to be 77. The ring closure, isolated yield (% isolated yield) in data set [2] (26-membered ring) was 44.
For “Ac-YGGEAAREAC(S-C≡C-C6H4-4-CO-OPfp)AREKAARE-NH2”, the ring closure, conversion by HPLC in data set [3] (27-membered ring, 0.5 h) came out at 114. In addition, the ring closure, isolated yield (% isolated yield) in data set [2] (27-membered ring) was 65.
As for “Ac-YGGEAAREAC(S-C≡C-C6H4-4-CO-OPfp)AREKAAREK-NH2”, the ring closure, conversion by HPLC in data set [3] (27-membered ring, 0.5 h) turned out to be 95.
“Ac-YGGEAAREAC(S-C≡C-Si(cHex)2-C≡C-I[bis-CF3 benziodoxole])ARECAARE-NH2” had a ring closure, conversion by HPLC in data set [1] (22-membered ring) of 69.
For the compound “Ac-YGGEAARK(ivDde)AC(S-C≡C-C6H4-3-CO-OPfp)AREKAARE-NH2”, in data set [3] (26-membered ring, 0.5 h), the ring closure, conversion by HPLC came to 72.
Regarding “Ac-YGGEAARK(ivDde)AC(S-C≡C-C6H4-4-CO-OPfp)AREKAARE-NH2”, the ring closure, conversion by HPLC in data set [3] (27-membered ring, 0.5 h) turned out to be 117.
Turning to “Ac-YGGEAARKAC(S-C≡C-C6H4-3-CO-OPfp)AREKAARE-NH2”, the ring closure, conversion by HPLC in data set [3] (26-membered ring, 0.5 h) was found to be 74.
Regarding “Ac-YGGEAARKAC(S-C≡C-C6H4-4-CO-OPfp)AREKAARE-NH2”, the ring closure, conversion by HPLC in data set [3] (27-membered ring, 0.5 h) was determined as 92.
As to “Ac-YGGEKAREAC(S-C≡C-C6H4-4-CO-OPfp)AREKAARE-NH2”, the ring closure, conversion by HPLC in data set [3] (27-membered ring, 0.5 h) was found to be 91.
